Patent publication US8624040B2, “Substituted hydroxamic acids and uses thereof” (Millennium Pharmaceuticals, Inc., priority 2009, dated 2014)

Target: T1, purified human HDAC6 (Homo sapiens, UniProt Q9UBN7)
T1 construct: purchased BPS Bioscience 5006
T1 sequence (Q9UBN7 1-1215): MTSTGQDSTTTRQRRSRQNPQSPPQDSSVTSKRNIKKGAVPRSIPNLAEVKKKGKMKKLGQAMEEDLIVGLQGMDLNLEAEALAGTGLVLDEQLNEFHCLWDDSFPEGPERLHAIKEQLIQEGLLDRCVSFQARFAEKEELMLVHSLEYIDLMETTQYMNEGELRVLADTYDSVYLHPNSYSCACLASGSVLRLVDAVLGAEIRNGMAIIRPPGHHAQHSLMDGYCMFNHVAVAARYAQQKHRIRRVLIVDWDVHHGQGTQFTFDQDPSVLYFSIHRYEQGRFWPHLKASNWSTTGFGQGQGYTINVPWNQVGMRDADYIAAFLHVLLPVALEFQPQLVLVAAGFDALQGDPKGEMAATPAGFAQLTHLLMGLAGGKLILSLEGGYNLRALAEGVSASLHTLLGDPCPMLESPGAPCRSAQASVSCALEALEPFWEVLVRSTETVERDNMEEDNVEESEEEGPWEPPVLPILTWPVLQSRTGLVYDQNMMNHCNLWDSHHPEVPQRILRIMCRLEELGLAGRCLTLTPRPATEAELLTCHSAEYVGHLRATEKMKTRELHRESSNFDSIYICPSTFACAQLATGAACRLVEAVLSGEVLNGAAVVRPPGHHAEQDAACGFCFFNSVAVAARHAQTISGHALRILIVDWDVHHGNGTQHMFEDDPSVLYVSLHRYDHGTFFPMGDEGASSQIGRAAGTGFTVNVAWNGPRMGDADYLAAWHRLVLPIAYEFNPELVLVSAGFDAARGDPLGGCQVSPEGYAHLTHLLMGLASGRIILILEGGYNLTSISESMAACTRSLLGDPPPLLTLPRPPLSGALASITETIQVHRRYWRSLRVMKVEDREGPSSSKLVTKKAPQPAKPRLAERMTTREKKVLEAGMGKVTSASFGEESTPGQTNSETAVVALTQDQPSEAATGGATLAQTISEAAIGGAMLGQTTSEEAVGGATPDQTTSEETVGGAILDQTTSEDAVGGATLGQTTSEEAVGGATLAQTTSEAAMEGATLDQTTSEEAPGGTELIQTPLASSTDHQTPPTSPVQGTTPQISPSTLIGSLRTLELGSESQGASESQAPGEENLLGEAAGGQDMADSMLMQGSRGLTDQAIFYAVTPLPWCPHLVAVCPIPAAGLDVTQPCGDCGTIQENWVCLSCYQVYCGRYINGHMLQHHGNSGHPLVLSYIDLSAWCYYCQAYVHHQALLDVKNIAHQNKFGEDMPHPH
Test: HDAC6 Enzyme Assay
Assay type: biochemical
Conditions: enzyme inhibition, substrate Ac-Arg-Gly-Lys(Ac)-AMC, 1 hour at 30° C.
Description: To measure the inhibition of HDAC6 activity, purified human HDAC6 (BPS Bioscience; Cat. No. 5006) is incubated with substrate Ac-Arg-Gly-Lys(Ac)-AMC peptide (Bachem Biosciences; Cat. No. I-1925) for 1 hour at 30° C. in the presence of test compounds or vehicle DMSO control. The reaction is stopped with the HDAC inhibitor trichostatin A (Sigma; Cat. No. T8552) and the amount of Arg-Gly-Lys-AMC generated is quantitated by digestion with trypsin (Sigma; Cat. No. T1426) and subsequent measurement of the amount of AMC released using a fluorescent plate reader (Pherastar; BMG Technologies) set at Ex 340 nm and Em 460 nm. Concentration response curves are generated by calculating the fluorescence increase in test compound-treated samples relative to DMSO-treated controls, and enzyme inhibition (IC50) values are determined from those curves.

Structure (SMILES)	IC50
Cc1cnc(C(=O)N2CCc3sc(C(=O)NO)cc3C2)cn1 [Compound 29, N-hydroxy-5-(5-methylpyrazine-2-carbonyl)-4,5,6,7-tetrahydrothieno[3,2-c]pyridine-2-carboxamide]	50 to 100 nM
O=C(NO)c1cc2c(s1)CCN(C(=O)c1cccc3cccnc13)C2 [Compound 30, N-hydroxy-5-(quinolin-8-ylcarbonyl)-4,5,6,7-tetrahydrothieno[3,2-c]pyridine-2-carboxamide]	< 50 nM
O=C(NO)c1cc2c(s1)CCN(C(=O)C1CCCCC1)C2 [Compound 31, 5-(cyclohexanecarbonyl)-N-hydroxy-4,5,6,7-tetrahydrothieno[3,2-c]pyridine-2-carboxamide]	< 50 nM
COc1cc(OC)nc(-c2ccc(C(=O)N3CCc4sc(C(=O)NO)cc4C3)cc2)n1 [Compound 32, 5-(4-(4,6-dimethoxypyrimidin-2-yl)benzoyl)-N-hydroxy-4,5,6,7-tetrahydrothieno[3,2-c]pyridine-2-carboxamide]	< 50 nM
O=C(NO)c1cc2c(s1)CCN(C(=O)C13CC4CC(CC(C4)C1)C3)C2 [Compound 33, 5-(adamantan-1-ylcarbonyl)-N-hydroxy-4,5,6,7-tetrahydrothieno[3,2-c]pyridine-2-carboxamide]	< 50 nM
O=C(NO)c1cc2c(s1)CCN(S(=O)(=O)c1ccc(C(F)(F)F)cc1)C2 [Compound 34, N-hydroxy-5-{[4-(trifluoromethyl)phenyl]sulfonyl}-4,5,6,7-tetrahydrothieno[3,2-c]pyridine-2-carboxamide]	< 50 nM
O=C(NO)c1cc2c(s1)CN(C(=O)Nc1ccc(-c3ccccc3)s1)CC2 [Compound 40, N^2-hydroxy-N^6-(5-phenyl-2-thienyl)-4,7-dihydrothieno[2,3-c]pyridine-2,6(5H)-dicarboxamide]	< 50 nM
O=C(NO)c1cc2c(s1)CN(C(=O)c1ccco1)CC2 [Compound 42, 6-(furan-2-carbonyl)-N-hydroxy-4,5,6,7-tetrahydrothieno[2,3-c]pyridine-2-carboxamide]	< 50 nM
Cc1nc(C)c(CC(=O)N2CCc3cc(C(=O)NO)sc3C2)s1 [Compound 47, 6-[(2,4-dimethyl-1,3-thiazol-5-yl)acetyl]-N-hydroxy-4,5,6,7-tetrahydrothieno[2,3-c]pyridine-2-carboxamide]	50 to 100 nM
Cc1ncc(C(=O)N2CCc3cc(C(=O)NO)sc3C2)c(-c2ccccc2)n1 [Compound 48, N-hydroxy-6-(2-methyl-4-phenylpyrimidine-5-carbonyl)-4,5,6,7-tetrahydrothieno[2,3-c]pyridine-2-carboxamide]	50 to 100 nM
Cc1cc(C(=O)N2CCc3cc(C(=O)NO)sc3C2)ccc1F [Compound 51, 6-(4-fluoro-3-methylbenzoyl)-N-hydroxy-4,5,6,7-tetrahydrothieno[2,3-c]pyridine-2-carboxamide]	< 50 nM
O=C(NO)c1cc2c(s1)CN(C(=O)Cc1cc(F)cc(F)c1)CC2 [Compound 52, 6-(2-(3,5-difluorophenyl)acetyl)-N-hydroxy-4,5,6,7-tetrahydrothieno[2,3-c]pyridine-2-carboxamide]	50 to 100 nM
O=C(NO)c1cc2c(s1)CN(C(=O)Nc1cccc(C(F)(F)F)c1)CC2 [Compound 54, N^2-hydroxy-N^6-[3-(trifluoromethyl)phenyl]-4,7-dihydrothieno[2,3-c]pyridine-2,6(5H)-dicarboxamide]	< 50 nM
NC(=O)CSc1ccsc1C(=O)N1CCc2cc(C(=O)NO)sc2C1 [Compound 56, 6-({3-[(2-amino-2-oxoethyl)sulfanyl]-2-thienyl}carlbonyl)-N-hydroxy-4,5,6,7-tetrahydrothieno[2,3-c]pyridine-2-carboxamide]	> 1000 nM
Cc1noc(C)c1CC(=O)N1CCc2cc(C(=O)NO)sc2C1 [Compound 62, 6-(2-(3,5-dimethylisoxazol-4-yl)acetyl)-N-hydroxy-4,5,6,7-tetrahydrothieno[2,3-c]pyridine-2-carboxamide]	50 to 100 nM
CC(C)(C)c1ccc(C(=O)N2CCc3cc(C(=O)NO)sc3C2)cc1 [Compound 64, 6-(4-tert-butylbenzoyl)-N-hydroxy-4,5,6,7-tetrahydrothieno[2,3-c]pyridine-2-carboxamide]	< 50 nM
Cc1oc(-c2ccccc2)nc1CC(=O)N1CCc2cc(C(=O)NO)sc2C1 [Compound 65, N-hydroxy-6-[(5-methyl-2-phenyl-1,3-oxazol-4-yl)acetyl]-4,5,6,7-tetrahydrothieno[2,3-c]pyridine-2-carboxamide]	< 50 nM
Cc1oc(C(C)(C)C)cc1C(=O)N1CCc2cc(C(=O)NO)sc2C1 [Compound 67, 6-(5-tert-butyl-2-methyl-3-furoyl)-N-hydroxy-4,5,6,7-tetrahydrothieno[2,3-c]pyridine-2-carboxamide]	< 50 nM
Cc1nc(CC(=O)N2CCc3cc(C(=O)NO)sc3C2)cs1 [Compound 75, N-hydroxy-6-(2-(2-methylthiazol-4-yl)acetyl)-4,5,6,7-tetrahydrothieno[2,3-c]pyridine-2-carboxamide]	50 to 100 nM
O=C(NO)c1cc2c(s1)CN(C(=O)NC1CCCCC1)CC2 [Compound 76, N^6-cyclohexyl-N^2-hydroxy-4,7-dihydrothieno[2,3-c]pyridine-2,6(5H)-dicarboxamide]	< 50 nM
Cc1cccc(NC(=O)N2CCc3cc(C(=O)NO)sc3C2)c1 [Compound 80, N^2-hydroxy-N^6-(3-methylphenyl)-4,7-dihydrothieno[2,3-c]pyridine-2,6(5H)-dicarboxamide]	< 50 nM
O=C(NO)c1cc2c(s1)CN(C(=O)c1cccc(O)n1)CC2 [Compound 81, N-hydroxy-6-[(6-hydroxypyridin-2-yl)carbonyl]-4,5,6,7-tetrahydrothieno[2,3-c]pyridine-2-carboxamide]	50 to 100 nM
Cn1nc(C(C)(C)C)cc1C(=O)N1CCc2cc(C(=O)NO)sc2C1 [Compound 88, 6-[(3-tert-butyl-1-methyl-1H-pyrazol-5-yl)carbonyl]-N-hydroxy-4,5,6,7-tetrahydrothieno[2,3-c]pyridine-2-carboxamide]	< 50 nM
O=C(NO)c1cc2c(s1)CN(C(=O)CSc1cccc(C(F)(F)F)c1)CC2 [Compound 89, N-hydroxy-6-({[3-(trifluoromethyl)phenyl]sulfanyl}acetyl)-4,5,6,7-tetrahydrothieno[2,3-c]pyridine-2-carboxamide]	< 50 nM
Cc1ccoc1C(=O)N1CCc2cc(C(=O)NO)sc2C1 [Compound 94, N-hydroxy-6-(3-methyl-2-furoyl)-4,5,6,7-tetrahydrothieno[2,3-c]pyridine-2-carboxamide]	< 50 nM
O=C(NO)c1cc2c(s1)CN(C(=O)c1ccc3ncccc3c1)CC2 [Compound 95, N-hydroxy-6-(quinoline-6-carbonyl)-4,5,6,7-tetrahydrothieno[2,3-c]pyridine-2-carboxamide]	< 50 nM
Cc1ncsc1C(=O)N1CCc2cc(C(=O)NO)sc2C1 [Compound 98, N-hydroxy-6-[(4-methyl-1,3-thiazol-5-yl)carbonyl]-4,5,6,7-tetrahydrothieno[2,3-c]pyridine-2-carboxamide]	< 50 nM
O=C(NO)c1cc2c(s1)CN(C(=O)c1cccc3cccnc13)CC2 [Compound 99, N-hydroxy-6-(quinoline-8-carbonyl)-4,5,6,7-tetrahydrothieno[2,3-c]pyridine-2-carboxamide]	< 50 nM
COc1cc(OC)nc(C(=O)N2CCc3cc(C(=O)NO)sc3C2)n1 [Compound 100, 6-[(4,6-dimethoxypyrimidin-2-yl)carbonyl]-N-hydroxy-4,5,6,7-tetrahydrothieno[2,3-c]pyridine-2-carboxamide]	50 to 100 nM
Cc1ccc(CNC(=O)N2CCc3cc(C(=O)NO)sc3C2)cc1 [Compound 103, N2-hydroxy-N-6-(4-methylbenzyl)-4,5-dihydrothieno[2,3-c]pyridine-2,6(5H)-dicarboxamide]	< 50 nM
